Results on 5 compounds are retold here after ChEMBL document CHEMBL1135859, “Indinavir analogues with blocked metabolism sites as HIV protease inhibitors with improved pharmacological profiles and high potency against PI-resistant viral strains” (Bioorg Med Chem Lett, 2002).

The target in series [1] is T1, Human immunodeficiency virus type 1 protease (Human immunodeficiency virus 1, UniProt Q72874). The series is described as follows: Inhibitory concentration required to inhibit cleavage of a substrate by the wild-type HIV-1 Protease.
A further series has as its system MT4. The series is described as follows: Concentration required to inhibit the spread of viral infection in MT-4 human T-lymphoid cells infected by the NL4-3 virus. In kind it is functional. The conditions noted are these: read-out: CIC95.
Series [2] relates to Human immunodeficiency virus 1. The experiment in a line: Concentration required to control the spread of HIV mutant strain 4X virus. The conditions noted are these: read-out: CIC95. It counts as functional.
Series [3] deals with Human immunodeficiency virus 1. The series is described as follows: Concentration required to control the spread of HIV mutant strain Q-60C. In kind it is functional. The note with it: read-out: CIC95.
A short description of series [4]: Maximum concentration was determined. It counts as ADME, organism-based, Canis lupus familiaris. The note with it: dog, in vivo.
Series [5] relates to Human immunodeficiency virus 1. The series is described as follows: (§1) Concentration required to control the spread of HIV mutant strain WT. The conditions noted are these: read-out: CIC95. In kind it is functional.
Series [6] is described as follows: Bioavailability in dog. It counts as ADME, organism-based, Canis lupus familiaris. The note with it: in vivo.
Series [7] has as its target T1, Human immunodeficiency virus type 1 protease. The experiment in a line: Inhibitory concentration required to inhibit cleavage of a substrate by the wild-type HIV-1 protease enzyme.
For series [8], the system named is Human immunodeficiency virus 1. The experiment in a line: Concentration required to control the spread of HIV mutant strain V-18C. It counts as functional. The conditions noted are these: read-out: CIC95.
Series [9] is described as follows: Area under curve in dogs. The note with it: dog, in vivo. In kind it is ADME, organism-based, Canis lupus familiaris.
A short description of series [10]: Half life in dogs. In kind it is ADME, organism-based, Canis lupus familiaris. The note with it: dog, in vivo.
For series [11], the system named is Human immunodeficiency virus 1. The series is described as follows: Concentration required to control the spread of HIV mutant strain K-60C. The note with it: read-out: CIC95. In kind it is functional.
A short description of series [12]: Area under curve was determined. It counts as ADME, organism-based, Canis lupus familiaris. The conditions noted are these: dog, in vivo.
Series [13] relates to Human immunodeficiency virus 1. Described as §1. The conditions noted are these: Human immunodeficiency virus 1, read-out: CIC95.
Series [14] in a line: Half life was determined. It counts as ADME, organism-based, Canis lupus familiaris. The note with it: dog, in vivo.
The nature of series [15]: Bioavailability. The conditions noted are these: dog, in vivo. It counts as ADME, organism-based, Canis lupus familiaris.

Usually IC50 stands for the point on the concentration scale where inhibition reaches its midpoint. The Cmax is the peak of the concentration-time curve. The term bioavailability denotes dose-corrected exposure relative to a reference, in per cent. Low readings indicate little systemic uptake, high ones much systemic uptake. As a reminder, the AUC is the area under the concentration-time curve, a measure of exposure. For orientation: half-life means how long it takes for the measured level to halve.

For the compound `CC(C)(C)NC(=O)[C@@H]1CN(C(C)(C)c2cccnc2)CCN1C[C@@H](O)C[C@@H](Cc1ccccc1)C(=O)N[C@H]1c2ccccc2C[C@H]1O`, half-maximal inhibition in series [1] (IC50) was put at 1.16 nM. For the same compound, in the series with MT4, the IC95 stood at 50 nM.
As for `CC(C)(C)NC(=O)[C@@H]1CN(C(C)(C)c2cc3cnccc3o2)CCN1C[C@@H](O)C[C@@H](Cc1ccccc1)C(=O)N[C@H]1c2ccccc2OC[C@H]1O`, the IC95 in [2] is 31 nM; in series [3], 250 nM; in series [5], below 8 nM; in series [8], 250 nM; in the series with MT4 it was below 8 nM; in series [11], 500 nM. In addition, the Cmax in series [4] came to 8.85 µM. In addition, the bioavailability in series [6] worked out at 81%. Besides, the IC50 in series [7] was determined as 0.075 nM. The compound also had an AUC in series [9] of 7.43 µM·h. Further, the half-life in [10] was 62.4 min.
With `CC(C)(C)NC(=O)[C@@H]1CN(C(C)(C)c2cc3cnccc3o2)CCN1C[C@@H](O)C[C@@H](Cc1ccccc1)C(=O)N[C@H]1c2ccccc2C[C@H]1O`, the IC95 is 625 nM in [2]; above 1000 nM in series [3]; 15 nM in series [5]; above 1000 nM in series [8]; 15 nM in the series on MT4; above 1000 nM in series [11]. Half-maximal inhibition in series [1] (IC50) was put at 0.15 nM. In series [4], this compound had a Cmax of 16.6 µM. This compound also had a bioavailability in series [6] of 44.3%. Also, the AUC in series [9] turned out to be 14.1 µM·h. The half-life in [10] is 47 min.
As for `CC(C)(C)NC(=O)[C@@H]1CN(Cc2cc3cnccc3o2)CCN1C[C@@H](O)C[C@@H](Cc1ccccc1)C(=O)N[C@H]1c2ccccc2C[C@H]1O`, in series [1], the midpoint of inhibition, the IC50, lay at 0.23 nM. For the same compound, the IC95 in the series with MT4 is 15 nM.
On to `CC(C)(C)NC(=O)[C@@H]1CN(Cc2cccnc2)CCN1C[C@@H](O)C[C@@H](Cc1ccccc1)C(=O)N[C@H]1c2ccccc2C[C@H]1O.O` [INDINAVIR], for which the IC95 in [2] is 500 nM; in [3] it was above 1000 nM; in series [13], 50.5 nM; in series [8] it was 1500 nM; with MT4, 50 nM; in series [11], above 3000 nM. The exposure (AUC) in series [12] was 12.5 µM·h. Besides, the half-life in series [14] was 38 min. For the same compound, the bioavailability in series [15] is 71.6%.
